Measurements: paper PMC7127091 (Bioorganic & Medicinal Chemistry, 2010)

System: human cytomegalovirus (HCMV) strain Davis
Test: Anti-HCMV assay in HEL fibroblasts
Assay type: cell-based
Details: for anti-HCMV activity (in words): HCMV replication in cell culture; for EC50: read-out: EC50 HCMV, Davis strain, 100 PFU, HEL fibroblasts, 7 days

## C[C@H](NC(=O)[C@@]1(Cc2ccccc2)CCN1C(=O)OCc1ccccc1)C(=O)NC(C)(C)C [(R,S)-4a, (2R,1’S)-2-Benzyl-1-benzyloxycarbonyl-2-[(1’-tert-butylcarbamoyl)ethyl]carbamoyl-azetidine]
  anti-HCMV activity (in words): retain the anti-HCMV activity

## CC(C)C[C@H](NC(=O)[C@@]1(Cc2ccccc2)CCN1C(=O)OCc1ccccc1)C(N)=O [(R,S)-7d, (2R,1’S)-2-Benzyl-1-benzyloxycarbonyl-2-[(1’-carbamoyl-3’-methyl)butyl]carbamoyl-azetidine]
  anti-HCMV activity (in words): maintain measurable anti-HCMV activity

## C[C@@H](NC(=O)[C@]1(Cc2ccccc2)CCN1C(=O)OCc1ccccc1)C(N)=O [(S,R)-7a, (2S,1’R)-2-Benzyl-1-benzyloxycarbonyl-2-[(1’-carbamoyl)ethyl]carbamoylazetidine]
  anti-HCMV activity (in words): maintain measurable anti-HCMV activity

## C[C@H](NC(=O)[C@]1(Cc2ccccc2)CCN1C(=O)OCc1ccccc1)C(=O)NC(C)(C)C [(S,S)-4a, (2S,1’S)-2-Benzyl-1-benzyloxycarbonyl-2-[(1’-tert-butylcarbamoyl)ethyl]carbamoyl-azetidine]
  anti-HCMV activity (in words): retain the anti-HCMV activity

## CC(C)CNC(=O)[C@H](C)NC(=O)[C@]1(Cc2ccccc2)CCN1C(=O)OCc1ccccc1 [(S,S)-4c, (2S,1’S)-2-Benzyl-1-benzyloxycarbonyl-2-[(1’-isobutylcarbamoyl)ethyl]carbamoyl-azetidine]
  anti-HCMV activity (in words): retain the anti-HCMV activity

## CC(C)[C@H](NC(=O)[C@]1(Cc2ccccc2)CCN1C(=O)OCc1ccccc1)C(N)=O [(S,S)-7c, (2S,1’S)-2-Benzyl-1-benzyloxycarbonyl-2-[(1’-carbamoyl-2’-methyl)propyl]carbamoyl-azetidine]
  anti-HCMV activity (in words): maintain measurable anti-HCMV activity

## C[C@H](NC(=O)[C@]1(Cc2ccccc2)CCN1C(=O)OCC1c2ccccc2-c2ccccc21)C(N)=O [(S,S)-10a, (2S,1’S)-2-Benzyl-2-[(1’-carbamoyl)ethyl]carbamoyl-1-(9-fluorenylmethoxy)carbonyl-azetidine]
  anti-HCMV activity (in words): inactive against HCMV

## C[C@H](NC(=O)[C@]1(Cc2ccccc2)CCN1C(=O)NCc1ccccc1)C(N)=O [(S,S)-10h, (2S,1’S)-2-Benzyl-1-benzylcarbamoyl-2-[(1’-carbamoyl)ethyl]carbamoylazetidine]
  anti-HCMV activity (in words): inactive

## C[C@H](NC(=O)[C@]1(Cc2ccccc2)CCN1C(=O)N[C@@H](C)c1ccccc1)C(N)=O [(S,S)-10i, (2S,1’S,1’’S)-2-Benzyl-2-[(1’’-carbamoyl)ethyl]carbamoyl-1-[(1’-phenyl)ethyl]carbamoyl-azetidine]
  anti-HCMV activity (in words): inactive

## C[C@H](NC(=O)[C@H](Cc1ccccc1)NC(=O)OCc1ccccc1)C(N)=O [compound 11, Z-Phe-Ala-NH2]
  anti-HCMV activity (in words): unable to inhibit the replication of HCMV

## C[C@H](NC(=O)[C@H](Cc1ccccc1)NC(=O)OCc1ccccc1)C(=O)NC(C)(C)C [compound 12, Z-Phe-Ala-NH^tBu]
  anti-HCMV activity (in words): unable to inhibit the replication of HCMV

## (2S,1’S)-2-Benzyl-2-[(1’-carbamoyl)ethyl]carbamoyl-1-(4-nitrobenzyloxy)carbonyl-azetidine [(S,S)-10c]
  EC50: > 20 µM

## (2S,1’S)-2-Benzyl-2-[(1’-carbamoyl)ethyl]carbamoyl-1-phenetylcarbonylazetidine [(S,S)-10g]
  anti-HCMV activity (in words): inactive
  EC50: > 100 µM
